In patent publication US10479784B2, “Substituted pyrazin-2-amines as inhibitors of ATR kinase” (Vertex Pharmaceuticals Incorporated, priority 2008, dated 2019):

target: full-length ATR (Homo sapiens (Human), UniProt Q13535); assay: ATR Inhibition Assay (radioactive-phosphate incorporation); assay type: biochemical; conditions: read-out: ATR Ki
Summary of the method: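 Full-length human ATR (5 nM) was assayed at 25 °C in 50 mM Tris/HCl pH 7.5, 10 mM MgCl2, 1 mM DTT, with 10 μM [γ-33P]ATP and 800 μM peptide, after 10-min compound preincubation. Reactions were stopped after 24 h, captured on phosphocellulose and counted; Ki(app) came from non-linear regression of initial rates.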

full-length ATR, sequence (Q13535 whole entry): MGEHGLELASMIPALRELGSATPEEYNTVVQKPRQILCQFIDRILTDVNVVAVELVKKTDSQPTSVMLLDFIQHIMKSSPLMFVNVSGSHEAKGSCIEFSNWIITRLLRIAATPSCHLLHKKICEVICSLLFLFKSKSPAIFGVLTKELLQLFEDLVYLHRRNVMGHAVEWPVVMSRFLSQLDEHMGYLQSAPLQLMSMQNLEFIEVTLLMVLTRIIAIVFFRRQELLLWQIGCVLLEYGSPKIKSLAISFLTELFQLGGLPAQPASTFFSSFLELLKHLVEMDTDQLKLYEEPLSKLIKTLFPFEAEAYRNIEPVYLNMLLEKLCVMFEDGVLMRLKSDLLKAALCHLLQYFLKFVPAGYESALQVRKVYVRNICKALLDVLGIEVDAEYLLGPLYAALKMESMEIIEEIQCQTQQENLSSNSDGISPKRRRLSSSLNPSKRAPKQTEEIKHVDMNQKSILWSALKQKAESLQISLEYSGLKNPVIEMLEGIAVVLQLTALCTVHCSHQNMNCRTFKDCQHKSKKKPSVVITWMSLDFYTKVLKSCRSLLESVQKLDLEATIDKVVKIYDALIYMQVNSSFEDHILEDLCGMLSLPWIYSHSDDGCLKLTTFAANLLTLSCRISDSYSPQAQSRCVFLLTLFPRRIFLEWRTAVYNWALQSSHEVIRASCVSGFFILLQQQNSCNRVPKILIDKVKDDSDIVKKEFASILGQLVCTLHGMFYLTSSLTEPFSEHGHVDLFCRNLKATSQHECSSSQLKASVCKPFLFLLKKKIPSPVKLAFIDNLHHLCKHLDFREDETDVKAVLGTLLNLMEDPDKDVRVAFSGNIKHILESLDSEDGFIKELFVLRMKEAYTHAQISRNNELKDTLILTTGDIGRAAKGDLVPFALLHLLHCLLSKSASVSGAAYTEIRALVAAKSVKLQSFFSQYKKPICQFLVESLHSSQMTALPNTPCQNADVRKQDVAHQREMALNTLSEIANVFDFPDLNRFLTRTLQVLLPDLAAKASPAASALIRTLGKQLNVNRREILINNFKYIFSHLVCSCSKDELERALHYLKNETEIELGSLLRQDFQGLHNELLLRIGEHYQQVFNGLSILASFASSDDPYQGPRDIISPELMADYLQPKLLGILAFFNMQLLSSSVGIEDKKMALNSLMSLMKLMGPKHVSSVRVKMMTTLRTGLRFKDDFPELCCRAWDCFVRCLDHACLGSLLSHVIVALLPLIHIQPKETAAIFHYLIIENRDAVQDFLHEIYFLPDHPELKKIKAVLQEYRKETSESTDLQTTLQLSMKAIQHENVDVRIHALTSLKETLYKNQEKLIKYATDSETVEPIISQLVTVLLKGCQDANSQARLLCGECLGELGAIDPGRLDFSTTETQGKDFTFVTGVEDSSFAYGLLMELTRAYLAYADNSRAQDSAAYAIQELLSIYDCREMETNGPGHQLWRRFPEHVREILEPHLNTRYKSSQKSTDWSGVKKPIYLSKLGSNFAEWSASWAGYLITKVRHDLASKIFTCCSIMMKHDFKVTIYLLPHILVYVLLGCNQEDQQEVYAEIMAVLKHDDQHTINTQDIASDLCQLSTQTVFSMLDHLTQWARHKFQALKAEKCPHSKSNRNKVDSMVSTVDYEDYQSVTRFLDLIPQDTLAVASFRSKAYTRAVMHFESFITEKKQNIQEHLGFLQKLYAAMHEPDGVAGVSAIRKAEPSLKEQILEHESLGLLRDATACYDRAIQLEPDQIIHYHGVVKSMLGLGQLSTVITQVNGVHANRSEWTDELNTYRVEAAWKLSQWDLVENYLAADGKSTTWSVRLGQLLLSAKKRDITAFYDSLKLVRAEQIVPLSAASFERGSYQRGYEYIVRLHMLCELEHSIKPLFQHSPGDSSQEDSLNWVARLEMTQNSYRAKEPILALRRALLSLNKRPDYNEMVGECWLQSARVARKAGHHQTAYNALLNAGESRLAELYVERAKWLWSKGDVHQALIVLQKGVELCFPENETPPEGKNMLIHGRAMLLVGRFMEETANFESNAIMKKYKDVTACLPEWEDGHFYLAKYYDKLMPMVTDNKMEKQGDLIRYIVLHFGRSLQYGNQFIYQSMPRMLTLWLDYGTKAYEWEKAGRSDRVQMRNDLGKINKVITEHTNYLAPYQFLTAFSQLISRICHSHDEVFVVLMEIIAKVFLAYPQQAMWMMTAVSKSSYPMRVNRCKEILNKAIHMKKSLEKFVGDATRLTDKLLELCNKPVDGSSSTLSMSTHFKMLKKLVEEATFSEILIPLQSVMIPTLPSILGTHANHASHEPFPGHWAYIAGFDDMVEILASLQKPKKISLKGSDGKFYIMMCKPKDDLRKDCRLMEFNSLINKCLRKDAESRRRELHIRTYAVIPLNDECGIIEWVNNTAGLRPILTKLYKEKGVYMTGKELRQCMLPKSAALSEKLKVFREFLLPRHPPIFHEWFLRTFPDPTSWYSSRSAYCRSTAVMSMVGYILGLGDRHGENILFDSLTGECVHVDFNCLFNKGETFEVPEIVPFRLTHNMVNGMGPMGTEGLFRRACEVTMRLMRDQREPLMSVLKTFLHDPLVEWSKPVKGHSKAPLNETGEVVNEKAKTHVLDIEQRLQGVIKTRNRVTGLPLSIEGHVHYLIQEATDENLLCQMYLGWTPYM

Row | SMILES | Ki
1 | CS(=O)(=O)c1ccc(-c2cnc(N)c(C(=O)Nc3nc4ccccc4[nH]3)n2)cc1 [Compound V-11] | ≤ 10 nM
2 | CS(=O)(=O)c1ccc(-c2cnc(N)c(C(=O)Nc3ccc4cc[nH]c4n3)n2)cc1 [Compound V-12] | ≤ 10 nM
3 | CS(=O)(=O)c1ccc(-c2cnc(N)c(C(=O)Nc3n[nH]c4ccccc34)n2)cc1 [Compound V-13] | 100 to 5000 nM
4 | Nc1ncc(-c2cccnc2)nc1C(=O)Nc1cccn2ncnc12 [Compound V-14] | 100 to 5000 nM
5 | Nc1ncc(-c2cccnc2)nc1C(=O)Nc1cccc2cc[nH]c12 [Compound V-15] | 100 to 5000 nM
6 | Nc1ncc(-c2cccnc2)nc1C(=O)Nc1ccc2cc[nH]c2c1 [Compound V-16] | 10 to 100 nM
7 | Nc1ncc(-c2cccnc2)nc1C(=O)Nc1ccc2[nH]ccc2c1 [Compound V-17] | 10 to 100 nM
8 | CS(=O)(=O)c1ccc(-c2cnc(N)c(C(=O)Nc3n[nH]c4ccccc34)n2)cc1 [Compound V-18] | 100 to 5000 nM
9 | Cn1c(NC(=O)c2nc(-c3ccc(C(=O)N4CCCNCC4)cc3)cnc2N)nc2ccccc21 [Compound V-25] | 100 to 5000 nM
10 | Nc1ncc(-c2ccc(C(=O)N3CCCNCC3)cc2)nc1C(=O)Nc1cc2ccccc2[nH]1 [Compound V-26] | 100 to 5000 nM
11 | Nc1ncc(-c2ccc(C(=O)N3CCCNCC3)cc2)nc1C(=O)Nc1ccc2c(c1)NNC2 [Compound V-28] | 10 to 100 nM
12 | Nc1ncc(-c2ccc(C(=O)N3CCCNCC3)cc2)nc1-c1nnc(-c2ccccc2)o1 [IA-1] | ≤ 10 nM
13 | CN(C)C1CCN(C(=O)c2ccc(-c3cnc(N)c(-c4nnc(-c5ccccc5)o4)n3)cc2F)CC1 [IA-4] | ≤ 10 nM
14 | CN(C)[C@@H]1CCN(C(=O)c2ccc(-c3cnc(N)c(-c4nnc(-c5ccccc5)o4)n3)cc2F)C1 [IA-5] | ≤ 10 nM
15 | Nc1ncc(-c2ccc(C(=O)N3CCCNCC3)c(F)c2)nc1-c1nnc(-c2ccccc2)o1 [IA-6] | ≤ 10 nM
16 | Nc1ncc(-c2ccc(C(=O)N3CCNCC3)c(F)c2)nc1-c1nnc(-c2ccccc2)o1 [IA-7] | 10 to 100 nM
17 | CN1CCN(C(=O)c2ccc(-c3cnc(N)c(-c4nnc(-c5ccccc5)o4)n3)cc2)CC1 [IA-9] | ≤ 10 nM
18 | CN(C)[C@@H]1CCN(C(=O)c2ccc(-c3cnc(N)c(-c4nnc(-c5ccccc5)o4)n3)cc2)C1 [IA-10] | ≤ 10 nM

Row | SMILES | Ki
19 | CCOC(=O)N1CCN(C(=O)c2ccc(-c3cnc(N)c(-c4nnc(-c5ccccc5)o4)n3)cc2)CC1 [IA-11] | 10 to 100 nM
20 | Nc1ncc(-c2ccc(C(=O)N3CCNCC3)cc2)nc1-c1nnc(-c2ccccc2)o1 [IA-12] | 10 to 100 nM
21 | Nc1ncc(-c2ccc(C(=O)N3CCOCC3)cc2)nc1-c1nnc(-c2ccccc2)o1 [IA-13] | 10 to 100 nM
22 | COCCN(C)C(=O)c1ccc(-c2cnc(N)c(-c3nnc(-c4ccccc4)o3)n2)cc1 [IA-14] | ≤ 10 nM
23 | Nc1ncc(-c2ccc(C(=O)N3CCCOCC3)cc2)nc1-c1nnc(-c2ccccc2)o1 [IA-15] | ≤ 10 nM
24 | Nc1ncc(-c2ccc(C(=O)N3CCNC(C(F)(F)F)C3)cc2)nc1-c1nnc(-c2ccccc2)o1 (stereo not drawn) [IA-16] | ≤ 10 nM
25 | CC1CN(C(=O)c2ccc(-c3cnc(N)c(-c4nnc(-c5ccccc5)o4)n3)cc2)CCN1 (stereo not drawn) [IA-17] | 10 to 100 nM
26 | CCC1CN(C(=O)c2ccc(-c3cnc(N)c(-c4nnc(-c5ccccc5)o4)n3)cc2)CCN1 (stereo not drawn) [IA-18] | ≤ 10 nM
27 | CC(C)(C)OC(=O)N1CCCN(C(=O)c2ccc(-c3cnc(N)c(-c4nnc(-c5ccccc5)o4)n3)c(C#N)c2)CC1 [IA-19] | ≤ 10 nM
28 | N#Cc1cc(C(=O)N2CCCNCC2)ccc1-c1cnc(N)c(-c2nnc(-c3ccccc3)o2)n1 [IA-20] | ≤ 10 nM
29 | CN(C)C1CCN(C(=O)c2c(F)cc(-c3cnc(N)c(-c4nnc(-c5ccccc5)o4)n3)cc2F)CC1 [IA-21] | 10 to 100 nM
30 | CN(C)C1CCN(C(=O)c2ccc(-c3cnc(N)c(-c4nnc(-c5ccccc5)o4)n3)c(C(F)(F)F)c2)CC1 [IA-22] | 10 to 100 nM
31 | CN(C)C(=O)c1ccc(-c2cnc(N)c(-c3nnc(-c4ccccc4)o3)n2)cc1 [IA-23, 4-(5-amino-6-(5-phenyl-1,3,4-oxadiazol-2-yl)pyrazin-2-yl)-N,N-dimethylbenzamide] | ≤ 10 nM
32 | Nc1ncc(-c2ccc(S(=O)(=O)N3CCNCC3)cc2)nc1-c1nnc(-c2ccccc2)o1 [IA-24] | 10 to 100 nM
33 | CC(C)(C)OC(=O)N1CCCN(C(=O)c2ccc(-c3cnc(N)c(-c4nnc(-c5ccccc5)o4)n3)cc2)CC1 [IA-28] | ≤ 10 nM
34 | CC(C)(C)CC(=O)N1CCCN(C(=O)c2ccc(-c3cnc(N)c(-c4nnc(-c5ccccc5)o4)n3)cc2)CC1 [IA-31] | ≤ 10 nM
35 | COC(=O)N1CCCN(C(=O)c2ccc(-c3cnc(N)c(-c4nnc(-c5ccccc5)o4)n3)cc2)CC1 [IA-34] | ≤ 10 nM

The next lines start with the values.

Row | Ki | SMILES
36 | 10 to 100 nM | CN(C)[C@@H]1CCN(S(=O)(=O)c2ccc(-c3cnc(N)c(-c4nnc(-c5ccccc5)o4)n3)cc2)C1 [IA-25]
37 | ≤ 10 nM | Nc1ncc(-c2ccc(S(=O)(=O)NCCO)cc2)nc1-c1nnc(-c2ccccc2)o1 [IA-26]
38 | ≤ 10 nM | Nc1ncc(-c2ccc(C(=O)N3CCCN(C=O)CC3)cc2)nc1-c1nnc(-c2ccccc2)o1 [IA-29]
39 | ≤ 10 nM | CN(C)C(=O)c1ccc(-c2cnc(N)c(-c3nnc(-c4ccccc4F)o3)n2)cc1 [IA-30]
40 | 10 to 100 nM | CN(C)C(=O)c1ccc(-c2cnc(N)c(-c3nnc(Nc4ccccc4)o3)n2)cc1 [IA-32]
41 | 100 to 5000 nM | CNc1nnc(-c2nc(-c3ccc(C(=O)N(C)C)cc3)cnc2N)o1 [IA-33]
42 | ≤ 10 nM | N#Cc1cnccc1-c1cnc(N)c(-c2nnc(-c3ccccc3)o2)n1 [IA-35]
43 | 10 to 100 nM | CN(C)C(=O)c1ccc(-c2cnc(N)c(-c3nnc(-c4ccc(F)cc4)o3)n2)cc1 [IA-36]
44 | 10 to 100 nM | Nc1ncc(-c2cnc(C(=O)N3CCCNCC3)nc2)nc1-c1nnc(-c2ccccc2)o1 [IA-37]
45 | 10 to 100 nM | Nc1ncc(-c2cc(F)c(C(=O)N3CCCNCC3)c(F)c2)nc1-c1nnc(-c2ccccc2)o1 [IA-38]
46 | ≤ 10 nM | Nc1ncc(-c2ccc(C(=O)N3CCCNCC3)cc2C(F)(F)F)nc1-c1nnc(-c2ccccc2)o1 [IA-39]
47 | 10 to 100 nM | CN(C)C(=O)c1ccc(-c2cnc(N)c(-c3nnc(-c4cccc(F)c4)o3)n2)cc1 [IA-40, 4-(5-amino-6-(5-(3-fluorophenyl)-1,3,4-oxadiazol-2-yl)pyrazin-2-yl)-N,N-dimethylbenzamide]
48 | 10 to 100 nM | CN(C)C(=O)c1ccc(-c2cnc(N)c(-c3nnc(-c4cccnc4)o3)n2)cc1 [IA-41]
49 | 10 to 100 nM | CN(C)C(=O)c1ccc(-c2cnc(N)c(-c3nnc(Nc4ccc(Cl)cc4)o3)n2)cc1 [IA-42]
50 | 10 to 100 nM | CN(C)C(=O)c1ccc(-c2cnc(N)c(-c3nnc(Nc4cccc(Cl)c4)o3)n2)cc1 [IA-43]
51 | 10 to 100 nM | CN(C)C(=O)c1ccc(-c2cnc(N)c(-c3nnc(Nc4cccnc4)o3)n2)cc1 [IA-44]
52 | 100 to 5000 nM | CN(C)C(=O)c1ccc(-c2cnc(N)c(-c3nnc(N4CCOCC4)o3)n2)cc1 [IA-45]
53 | 10 to 100 nM | CN(C)C(=O)c1ccc(-c2cnc(N)c(-c3nnc(-c4ccccc4)o3)n2)c(Cl)c1 [IA-46]
54 | ≤ 10 nM | Nc1ncc(-c2ccc(C(=O)N3CCCNCC3)nc2)nc1-c1nnc(-c2ccccc2)o1 [IA-47]
55 | 10 to 100 nM | Nc1ncc(-c2ccccc2)nc1-c1nnc(-c2ccccc2)o1 [IA-49]

Row | Ki | SMILES
56 | 10 to 100 nM | N#Cc1ccccc1-c1cnc(N)c(-c2nnc(-c3ccccc3)o2)n1 [IA-50]
57 | 10 to 100 nM | CN(C)C(=O)c1ccc(-c2cnc(N)c(-c3nnc(-c4ccccn4)o3)n2)cc1 [IA-51]
58 | ≤ 10 nM | CN(C)C(=O)c1ccc(-c2cnc(N)c(-c3nnc(-c4cccs4)o3)n2)cc1 [IA-52]
59 | 10 to 100 nM | CN(C)C(=O)c1ccc(-c2cnc(N)c(-c3nnc(-c4ccc[nH]c4=O)o3)n2)cc1 [IA-53]
60 | 100 to 5000 nM | CN(C)C(=O)c1ccc(-c2cnc(N)c(-c3nnc(NC4CCNCC4)o3)n2)cc1 [IA-54]
61 | 100 to 5000 nM | CN(C)C(=O)c1ccc(-c2cnc(N)c(-c3nnc(NCc4ccccc4)o3)n2)cc1 [IA-55, 4-(5-amino-6-(5-(benzylamino)-1,3,4-oxadiazol-2-yl)pyrazin-2-yl)-N,N-dimethylbenzamide]
62 | 100 to 5000 nM | CC(C)c1ccccc1-c1cnc(N)c(-c2nnc(-c3ccccc3)o2)n1 [IA-56]
63 | 100 to 5000 nM | CCc1ccccc1-c1cnc(N)c(-c2nnc(-c3ccccc3)o2)n1 [IA-57]
64 | 10 to 100 nM | Nc1ccccc1-c1cnc(N)c(-c2nnc(-c3ccccc3)o2)n1 [IA-58]
65 | 10 to 100 nM | Nc1ncc(-c2cccc3[nH]ccc23)nc1-c1nnc(-c2ccccc2)o1 [IA-59]
66 | ≤ 10 nM | Nc1ncc(-c2ccncc2)nc1-c1nnc(-c2ccccc2)o1 [IA-60]
67 | 10 to 100 nM | Nc1ncc(-c2ccccc2O)nc1-c1nnc(-c2ccccc2)o1 [IA-61]
68 | 10 to 100 nM | Nc1ncc(-c2ccc3ncccc3c2)nc1-c1nnc(-c2ccccc2)o1 [IA-63]
69 | 10 to 100 nM | Nc1ncc(-c2cccnc2)nc1-c1nnc(-c2ccccc2)o1 [IA-64]
70 | 100 to 5000 nM | COc1ccccc1-c1cnc(N)c(-c2nnc(-c3ccccc3)o2)n1 [IA-65]
71 | 10 to 100 nM | CC(=O)Nc1cccc(-c2cnc(N)c(-c3nnc(-c4ccccc4)o3)n2)c1 [IA-66]
72 | 10 to 100 nM | CN(C)C(=O)c1ccc(-c2cnc(N)c(-c3nnc(-c4ccncc4)o3)n2)cc1 [IA-67]
73 | ≤ 10 nM | Nc1ncc(-c2ccc(C(=O)N3CCCNCC3)cc2)nc1-c1nnc(-c2ccccc2)s1 [IA-68, (4-(5-amino-6-(5-phenyl-1,3,4-thiadiazol-2-yl)pyrazin-2-yl)phenyl)(1,4-diazepan-1-yl)methanone]
74 | 10 to 100 nM | CN(C)C(=O)c1ccc(-c2cnc(N)c(-c3nnc(-c4cccc(CCO)c4)o3)n2)cc1 [IA-69, 4-[5-amino-6-[5-[3-(2-hydroxyethyl)phenyl]-1,3,4-oxadiazol-2-yl]pyrazin-2-yl]-N,N-dimethyl-benzamide]
75 | ≤ 10 nM | CC(C)S(=O)(=O)c1ccc(-c2cnc(N)c(-c3nnc(-c4ccc(C(=N)N)cc4)o3)n2)cc1 [IA-70, 4-[5-[3-amino-6-(4-isopropylsulfonylphenyl)pyrazin-2-yl]-1,3,4-oxadiazol-2-yl]benzamidine]
